Test [1] relates to LNCaP cells. As to the kind of experiment: LNCaP cell viability assay (CellTiter-Glo). In kind it is cell-based. The note with it: Homo sapiens, 72 h, LNCaP prostate cancer cell viability inhibition, 3 days. In a few lines:
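LNCaP cells, 5000/well, exposed to compounds in 12-point 3-fold serial dilution (top 10 μM) for 3 days. Viability by CellTiter-Glo luminescence, normalized to untreated cells; IC50 by least-squares nonlinear regression.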
(In general: In ATP-based viability assays light output follows the ATP content of the culture.)

For test [2], the target named is P300 (Homo sapiens, UniProt Q09472). As to the kind of experiment: Immunoblotting of P300 protein levels in LNCaP or 22RV1 cells. In kind it is cell-based. The note with it: read-out: Degradation (10 nM). The arrangement: LNCaP or 22RV1 cells that express CBP/P300 proteins were treated with GNE-781 or the bivalent compounds; endogenous in cells; host or cells: LNCaP (clone FGC) or 22RV1 cells. The method, boiled down:
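LNCaP or 22RV1 cells treated with compounds for indicated hours, DMSO as negative control. RIPA lysates resolved by SDS-PAGE and immunoblotted for P300 or CBP, tubulin or vinculin as loading control; chemiluminescent bands quantitated.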

[3] abbreviates: percentage of inhibition of p300 at 10 nM (Table 3).
The mark [4] stands for this setting: percentage of inhibition of p300 at 10 nM (Table 2).

Structures are written as SMILES. Like-named read-outs stand apart in the source and are kept apart here.

Sequence of P300 (Q09472 whole entry): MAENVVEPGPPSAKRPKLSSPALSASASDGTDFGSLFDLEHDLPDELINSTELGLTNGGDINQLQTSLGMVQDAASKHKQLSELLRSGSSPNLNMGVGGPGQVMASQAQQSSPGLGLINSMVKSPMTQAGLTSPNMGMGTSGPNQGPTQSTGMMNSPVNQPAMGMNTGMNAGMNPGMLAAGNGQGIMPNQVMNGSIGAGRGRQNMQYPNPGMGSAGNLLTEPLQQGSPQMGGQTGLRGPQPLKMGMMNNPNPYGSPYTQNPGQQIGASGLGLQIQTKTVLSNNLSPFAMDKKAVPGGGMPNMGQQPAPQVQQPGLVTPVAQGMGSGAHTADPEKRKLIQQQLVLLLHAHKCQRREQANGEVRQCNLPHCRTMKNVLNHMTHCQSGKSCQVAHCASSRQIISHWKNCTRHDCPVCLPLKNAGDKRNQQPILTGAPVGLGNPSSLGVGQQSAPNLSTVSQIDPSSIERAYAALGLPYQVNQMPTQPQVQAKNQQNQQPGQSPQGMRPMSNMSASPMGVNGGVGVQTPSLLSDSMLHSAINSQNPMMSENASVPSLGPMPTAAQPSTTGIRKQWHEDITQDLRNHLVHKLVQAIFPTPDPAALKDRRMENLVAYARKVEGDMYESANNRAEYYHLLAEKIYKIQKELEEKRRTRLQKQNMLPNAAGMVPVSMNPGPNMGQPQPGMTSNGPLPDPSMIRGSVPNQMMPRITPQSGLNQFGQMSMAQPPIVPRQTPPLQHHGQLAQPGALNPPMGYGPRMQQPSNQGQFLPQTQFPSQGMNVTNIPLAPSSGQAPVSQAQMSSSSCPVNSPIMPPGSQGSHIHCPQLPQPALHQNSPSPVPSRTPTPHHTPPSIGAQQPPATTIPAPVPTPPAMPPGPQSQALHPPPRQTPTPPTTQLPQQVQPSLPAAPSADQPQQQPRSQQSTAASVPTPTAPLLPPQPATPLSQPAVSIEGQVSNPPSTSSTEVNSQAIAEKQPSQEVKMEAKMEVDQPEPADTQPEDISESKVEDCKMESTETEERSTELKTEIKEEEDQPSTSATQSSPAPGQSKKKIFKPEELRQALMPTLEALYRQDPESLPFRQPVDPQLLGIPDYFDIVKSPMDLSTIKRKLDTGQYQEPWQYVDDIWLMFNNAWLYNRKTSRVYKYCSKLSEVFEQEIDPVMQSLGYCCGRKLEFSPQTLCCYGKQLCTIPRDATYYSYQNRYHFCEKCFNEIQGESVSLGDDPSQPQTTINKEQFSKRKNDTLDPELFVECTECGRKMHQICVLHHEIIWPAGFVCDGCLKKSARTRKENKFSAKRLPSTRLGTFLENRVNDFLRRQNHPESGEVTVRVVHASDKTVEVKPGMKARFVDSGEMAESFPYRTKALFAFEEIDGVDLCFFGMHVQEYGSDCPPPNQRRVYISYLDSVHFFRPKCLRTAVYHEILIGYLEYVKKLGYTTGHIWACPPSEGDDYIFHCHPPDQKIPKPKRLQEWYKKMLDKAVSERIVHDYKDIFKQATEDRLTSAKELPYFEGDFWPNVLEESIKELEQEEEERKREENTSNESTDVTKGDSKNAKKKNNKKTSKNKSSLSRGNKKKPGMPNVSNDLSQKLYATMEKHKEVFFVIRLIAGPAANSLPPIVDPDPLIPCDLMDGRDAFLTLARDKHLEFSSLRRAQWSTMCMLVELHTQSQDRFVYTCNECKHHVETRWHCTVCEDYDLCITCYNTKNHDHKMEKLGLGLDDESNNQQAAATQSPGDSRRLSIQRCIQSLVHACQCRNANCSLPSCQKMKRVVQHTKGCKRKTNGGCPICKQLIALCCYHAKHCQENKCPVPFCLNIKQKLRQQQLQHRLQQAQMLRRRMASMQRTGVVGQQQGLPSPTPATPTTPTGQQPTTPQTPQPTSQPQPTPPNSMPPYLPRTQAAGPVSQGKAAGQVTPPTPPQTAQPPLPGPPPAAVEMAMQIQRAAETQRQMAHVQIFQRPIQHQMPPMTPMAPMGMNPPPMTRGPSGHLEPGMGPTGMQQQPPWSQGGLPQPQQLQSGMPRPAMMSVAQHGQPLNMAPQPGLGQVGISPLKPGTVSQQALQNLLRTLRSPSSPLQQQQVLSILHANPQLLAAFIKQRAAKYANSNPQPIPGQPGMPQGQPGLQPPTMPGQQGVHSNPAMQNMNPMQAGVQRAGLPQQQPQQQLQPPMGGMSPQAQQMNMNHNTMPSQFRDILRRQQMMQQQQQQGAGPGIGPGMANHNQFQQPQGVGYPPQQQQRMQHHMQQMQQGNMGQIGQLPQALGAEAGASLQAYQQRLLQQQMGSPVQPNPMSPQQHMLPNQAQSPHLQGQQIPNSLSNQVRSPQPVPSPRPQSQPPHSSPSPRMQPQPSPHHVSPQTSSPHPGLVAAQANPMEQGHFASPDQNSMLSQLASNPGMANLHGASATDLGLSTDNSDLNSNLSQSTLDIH

In test [1] (CellTiter-Glo (Table 3)), `CC(=O)N1CCc2c(c(N3CCCc4cc(-c5cnn(C)c5)c(C(F)F)cc43)nn2C2CCN(C(=O)CN3CCC(COc4cccc5c4C(=O)N(C4CCC(=O)NC4=O)C5=O)CC3)CC2)C1` (centres unmarked) [P-168, 4-((1-(2-(4-(5-Acetyl-3-(7-(difluoromethyl)-6-(1-methyl-1H-pyrazol-4-yl)-3,4-dihydroquinolin-1(2H)-yl)-4,5,6,7-tetrahydro-1H-pyrazolo[4,3-c]pyridin-1-yl)piperidin-1-yl)-2-oxoethyl)piperidin-4-yl)methoxy)-2-(2,6-dioxopiperidin-3-yl)isoindoline-1,3-dione] showed an IC50 of 0.156 µM. Moreover, in test [2] (setting [3]), the inhibition at 0.01 µM is below 20%.
With `CC(=O)N1CCc2c(c(N3CCCc4cc(-c5cnn(C)c5)c(C(F)F)cc43)nn2C2CCN(C(=O)CCCCNc3ccc4c(c3)n(C)c(=O)n4C3CCC(=O)NC3=O)CC2)C1` (centres unmarked) [P-126, 3-(5-((5-(4-(5-Acetyl-3-(7-(difluoromethyl)-6-(1-methyl-1H-pyrazol-4-yl)-3,4-dihydroquinolin-1(2H)-yl)-4,5,6,7-tetrahydro-1H-pyrazolo[4,3-c]pyridin-1-yl)piperidin-1-yl)-5-oxopentyl)amino)-3-methyl-2-oxo-2,3-dihydro-1H-benzo[d]imidazol-1-yl)piperidine-2,6-dione], half-maximal inhibition in test [1] (CellTiter-Glo (Table 3)) (IC50) required 0.094 µM. Also, the inhibition at 0.01 µM in test [2] (setting [3]) is above 80%.
Take `CNC(=O)N1CCc2c(c(N3CCCc4cc(-c5cnn(C)c5)c(C(F)F)cc43)nn2C2CCN(C(=O)CCCCCCn3c(=O)n(C4CCC(=O)NC4=O)c4ccccc43)CC2)C1` (centres unmarked) [P-106, 3-(7-(difluoromethyl)-6-(1-methyl-1H-pyrazol-4-yl)-3,4-dihydroquinolin-1(2H)-yl)-1-(1-(7-(3-(2,6-dioxopiperidin-3-yl)-2-oxo-2,3-dihydro-1H-benzo[d]imidazol-1-yl)heptanoyl)piperidin-4-yl)-N-methyl-1,4,6,7-tetrahydro-5H-pyrazolo[4,3-c]pyridine-5-carboxamide]: half-maximal inhibition in test [1] (CellTiter-Glo (Table 3)) (IC50) required 0.0242 µM. The inhibition at 0.01 µM in test [2] was 50 to 80%.
`CC(=O)N1CCc2c(c(N3CCCc4cc(-c5cnn(C)c5)c(C(F)F)cc43)nn2C2CCN(C(=O)CCCC3CN(c4cccc5c4C(=O)N(C4CCC(=O)NC4=O)C5=O)C3)CC2)C1` (centres unmarked) [P-146, 4-(3-(4-(4-(5-acetyl-3-(7-(difluoromethyl)-6-(1-methyl-1H-pyrazol-4-yl)-3,4-dihydroquinolin-1(2H)-yl)-4,5,6,7-tetrahydro-1H-pyrazolo[4,3-c]pyridin-1-yl)piperidin-1-yl)-4-oxobutyl)azetidin-1-yl)-2-(2,6-dioxopiperidin-3-yl)isoindoline-1,3-dione] displayed an IC50 in test [1] (CellTiter-Glo (Table 3)) of 0.002 µM. Further, the inhibition at 0.01 µM in test [2] (setting [3]) is above 80%.
With `CC(=O)N1CCc2c(c(N3CCCc4cc(-c5cnn(C)c5)c(C(F)F)cc43)nn2C2CCN(C(=O)CCCCCCCNc3ccc4c(c3)C(=O)N(C3CCC(=O)NC3=O)C4=O)CC2)C1` (centres unmarked) [P-119, 5-((8-(4-(5-acetyl-3-(7-(difluoromethyl)-6-(1-methyl-1H-pyrazol-4-yl)-3,4-dihydroquinolin-1(2H)-yl)-4,5,6,7-tetrahydro-1H-pyrazolo[4,3-c]pyridin-1-yl)piperidin-1-yl)-8-oxooctyl)amino)-2-(2,6-dioxopiperidin-3-yl)isoindoline-1,3-dione], the IC50 in test [1] (CellTiter-Glo (Table 3)) came out at 0.0017 µM. In addition, the inhibition at 0.01 µM in test [2] (setting [3]) is above 80%.
Compound `CNC(=O)N1CCc2c(c(N3CCCc4cc(-c5cnn(CC(=O)NCCCCCCCCCCC(=O)N[C@H](C(=O)N6C[C@H](O)C[C@H]6C(=O)NCc6ccc(-c7scnc7C)cc6)C(C)(C)C)c5)c(C(F)F)cc43)nn2C2CCOCC2)C1` [P-050, 3-(7-(Difluoromethyl)-6-(1-(2-((11-(((S)-1-((2S,4R)-4-hydroxy-2-((4-(4-methylthiazol-5-yl)benzyl)carbamoyl)pyrrolidin-1-yl)-3,3-dimethyl-1-oxobutan-2-yl)amino)-11-oxoundecyl)amino)-2-oxoethyl)-1H-pyrazol-4-yl)-3,4-dihydroquinolin-1(2H)-yl)-N-methyl-1-(tetrahydro-2H-pyran-4-yl)-1,4,6,7-tetrahydro-5H-pyrazolo[4,3-c]pyridine-5-carboxamide] registered an IC50 in test [1] (CellTiter-Glo (Table 2)) of 0.111 µM. Besides, the inhibition at 0.01 µM in test [2] (setting [4]) lay in the range of 20 to 50%.
In test [1] (CellTiter-Glo (Table 3)), `CC(=O)N1CCc2c(c(N3CCCc4cc(-c5cnn(C)c5)c(C(F)F)cc43)nn2C2CCN(C(=O)CCCCCCNc3cccc4nnn(C5CCC(=O)NC5=O)c(=O)c34)CC2)C1` (centres unmarked) [P-153, 3-(5-((7-(4-(5-acetyl-3-(7-(difluoromethyl)-6-(1-methyl-1H-pyrazol-4-yl)-3,4-dihydroquinolin-1(2H)-yl)-4,5,6,7-tetrahydro-1H-pyrazolo[4,3-c]pyridin-1-yl)piperidin-1-yl)-7-oxoheptyl)amino)-4-oxobenzo[d] [1,2,3]triazin-3 (4H)-yl)piperidine-2,6-dione] registered an IC50 of 0.0037 µM. Besides, the inhibition at 0.01 µM in test [2] (setting [3]) was above 80%.
In test [1] (CellTiter-Glo (Table 2)), `CNC(=O)N1CCc2c(c(N3CCCc4cc(-c5cnn(C)c5)c(C(F)F)cc43)nn2C2CCN(C(=O)CCOCCOCCOCCOCCNc3ccc4c(c3)C(=O)N(C3CCC(=O)NC3=O)C4=O)CC2)C1` (centres unmarked) [P-011, 3-(7-(Difluoromethyl)-6-(1-methyl-1H-pyrazol-4-yl)-3,4-dihydroquinolin-1(2H)-yl)-1-(1-(1-((2-(2,6-dioxopiperidin-3-yl)-1,3-dioxoisoindolin-5-yl)amino)-3,6,9,12-tetraoxapentadecan-15-oyl)piperidin-4-yl)-N-methyl-1,4,6,7-tetrahydro-5H-pyrazolo[4,3-c]pyridine-5-carboxamide] showed an IC50 of 0.163 µM. For the same compound, the inhibition at 0.01 µM in test [2] (setting [4]) lay in the range of 20 to 50%.
`CNC(=O)N1CCc2c(c(N3CCCc4cc(-c5cnn(C)c5)c(C(F)F)cc43)nn2C2CCN(C(=O)CCCCCC(=O)N[C@H](C(=O)N3C[C@H](O)C[C@H]3C(=O)NCc3ccc(-c4scnc4C)cc3)C(C)(C)C)CC2)C1` [P-059, 3-(7-(Difluoromethyl)-6-(1-methyl-1H-pyrazol-4-yl)-3,4-dihydroquinolin-1(2H)-yl)-1-(1-(7-(((S)-1-((2S,4R)-4-hydroxy-2-((4-(4-methylthiazol-5-yl)benzyl)carbamoyl)pyrrolidin-1-yl)-3,3-dimethyl-1-oxobutan-2-yl)amino)-7-oxoheptanoyl)piperidin-4-yl)-N-methyl-1,4,6,7-tetrahydro-5H-pyrazolo[4,3-c]pyridine-5-carboxamide]: the midpoint of inhibition in test [1] (CellTiter-Glo (Table 3)), the IC50, lay at 0.0606 µM. For the same compound, the inhibition at 0.01 µM in test [2] (setting [3]) is below 20%.
The compound `CNC(=O)N1CCc2c(c(N3CCCc4cc(-c5cnn(C)c5)c(C(F)F)cc43)nn2C2CCN(CCCCCCCc3cccc4c3C(=O)N(C3CCC(=O)NC3=O)C4=O)CC2)C1` (centres unmarked) [P-097, 3-(7-(difluoromethyl)-6-(1-methyl-1H-pyrazol-4-yl)-3,4-dihydroquinolin-1(2H)-yl)-1-(1-(7-(2-(2,6-dioxopiperidin-3-yl)-1,3-dioxoisoindolin-4-yl)heptyl)piperidin-4-yl)-N-methyl-1,4,6,7-tetrahydro-5H-pyrazolo[4,3-c]pyridine-5-carboxamide] yielded an IC50 in test [1] (CellTiter-Glo (Table 3)) of 0.049 µM. Besides, in test [2] (setting [3]), the inhibition at 0.01 µM was above 80%.
Take `CNC(=O)N1CCc2c(c(N3CCCc4cc(-c5cnn(CC(=O)NCCCCCCCCNc6ccc7c(c6)C(=O)N(C6CCC(=O)NC6=O)C7=O)c5)c(C(F)F)cc43)nn2C2CCOCC2)C1` (centres unmarked) [P-027, 3-(7-(difluoromethyl)-6-(1-(2-((8-((2-(2,6-dioxopiperidin-3-yl)-1,3-dioxoisoindolin-5-yl)amino)octyl)amino)-2-oxoethyl)-1H-pyrazol-4-yl)-3,4-dihydroquinolin-1(2H)-yl)-N-methyl-1-(tetrahydro-2H-pyran-4-yl)-1,4,6,7-tetrahydro-5H-pyrazolo[4,3-c]pyridine-5-carboxamide]: the IC50 in test [1] (CellTiter-Glo (Table 2)) was determined as 0.0025 µM. Moreover, the inhibition at 0.01 µM in test [2] (setting [4]) was above 80%.
In the case of `CC(=O)N1CCc2c(c(N3CCCc4cc(-c5cnn(C)c5)c(C(F)F)cc43)nn2C2CCN(C(=O)CCCCCNc3cccc4nc(C)n(C5CCC(=O)NC5=O)c(=O)c34)CC2)C1` (centres unmarked) [P-165, 3-(5-((6-(4-(5-Acetyl-3-(7-(difluoromethyl)-6-(1-methyl-1H-pyrazol-4-yl)-3,4-dihydroquinolin-1(2H)-yl)-4,5,6,7-tetrahydro-1H-pyrazolo[4,3-c]pyridin-1-yl)piperidin-1-yl)-6-oxohexyl)amino)-2-methyl-4-oxoquinazolin-3(4H)-yl)piperidine-2,6-dione], the IC50 in test [1] (CellTiter-Glo (Table 3)) turned out to be 0.123 µM. Moreover, the inhibition at 0.01 µM in test [2] (setting [3]) is 50 to 80%.
With `CNC(=O)N1CCc2c(c(N3CCCc4cc(-c5cnn(C)c5)c(C(F)F)cc43)nn2C2CCN(C(=O)CCCCCNc3cccc4c3n(C)c(=O)n4C3CCC(=O)NC3=O)CC2)C1` (centres unmarked) [P-109, 3-(7-(difluoromethyl)-6-(1-methyl-1H-pyrazol-4-yl)-3,4-dihydroquinolin-1(2H)-yl)-1-(1-(6-((1-(2,6-dioxopiperidin-3-yl)-3-methyl-2-oxo-2,3-dihydro-1H-benzo[d]imidazol-4-yl)amino)hexanoyl)piperidin-4-yl)-N-methyl-1,4,6,7-tetrahydro-5H-pyrazolo[4,3-c]pyridine-5-carboxamide], the IC50 in test [1] (CellTiter-Glo (Table 3)) was 0.0129 µM. In addition, the inhibition at 0.01 µM in test [2] (setting [3]) is above 80%.

What is called IC50 is the concentration that inhibits the measured activity by half.
